ChEMBL document CHEMBL3621100, “Discovery of Novel Class I Histone Deacetylase Inhibitors with Promising in Vitro and in Vivo Antitumor Activities” (J Med Chem, 2015)

What was measured:
[1] = biological target: T1, Protein deacetylase HDAC6 (Homo sapiens, UniProt Q9UBN7); assay: Inhibition of recombinant human HDAC6 after 60 mins by fluorescence assay
T1 sequence (Q9UBN7 whole entry): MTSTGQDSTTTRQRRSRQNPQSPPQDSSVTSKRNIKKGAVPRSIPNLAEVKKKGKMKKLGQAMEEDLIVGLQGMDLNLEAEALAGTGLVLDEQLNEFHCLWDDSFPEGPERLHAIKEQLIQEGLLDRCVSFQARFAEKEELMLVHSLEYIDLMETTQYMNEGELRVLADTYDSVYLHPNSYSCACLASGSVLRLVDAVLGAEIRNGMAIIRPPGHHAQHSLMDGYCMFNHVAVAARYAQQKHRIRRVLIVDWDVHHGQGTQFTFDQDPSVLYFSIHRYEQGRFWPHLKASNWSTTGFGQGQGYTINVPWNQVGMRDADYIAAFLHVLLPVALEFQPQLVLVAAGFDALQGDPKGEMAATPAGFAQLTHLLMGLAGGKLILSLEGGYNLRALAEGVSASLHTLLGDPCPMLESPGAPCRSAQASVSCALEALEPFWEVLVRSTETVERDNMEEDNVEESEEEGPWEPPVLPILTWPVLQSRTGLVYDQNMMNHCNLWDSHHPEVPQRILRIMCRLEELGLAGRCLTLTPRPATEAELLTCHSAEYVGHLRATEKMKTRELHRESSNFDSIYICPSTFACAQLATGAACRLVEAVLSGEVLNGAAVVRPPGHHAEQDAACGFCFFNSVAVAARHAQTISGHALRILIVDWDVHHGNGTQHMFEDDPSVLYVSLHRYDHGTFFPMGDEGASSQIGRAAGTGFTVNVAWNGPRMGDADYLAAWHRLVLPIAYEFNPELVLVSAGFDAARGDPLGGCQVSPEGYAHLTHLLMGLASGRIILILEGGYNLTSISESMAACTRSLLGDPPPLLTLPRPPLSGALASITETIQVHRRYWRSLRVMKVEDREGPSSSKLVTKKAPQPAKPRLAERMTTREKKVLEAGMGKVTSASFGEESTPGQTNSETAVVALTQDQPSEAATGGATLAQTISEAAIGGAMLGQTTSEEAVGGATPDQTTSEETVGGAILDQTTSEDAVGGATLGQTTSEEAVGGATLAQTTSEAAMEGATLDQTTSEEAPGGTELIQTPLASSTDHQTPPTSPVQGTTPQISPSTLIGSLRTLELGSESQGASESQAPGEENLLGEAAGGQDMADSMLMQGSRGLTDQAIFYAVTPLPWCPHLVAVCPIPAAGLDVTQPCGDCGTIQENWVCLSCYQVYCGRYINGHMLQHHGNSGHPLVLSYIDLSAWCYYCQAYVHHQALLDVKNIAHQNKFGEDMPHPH

Histone deacetylase 2 = Histone deacetylase 2 (Homo sapiens, UniProt Q92769); assay: Inhibition of recombinant human HDAC2 after 60 mins by fluorescence assay
Chain of Histone deacetylase 2 (Q92769 whole entry): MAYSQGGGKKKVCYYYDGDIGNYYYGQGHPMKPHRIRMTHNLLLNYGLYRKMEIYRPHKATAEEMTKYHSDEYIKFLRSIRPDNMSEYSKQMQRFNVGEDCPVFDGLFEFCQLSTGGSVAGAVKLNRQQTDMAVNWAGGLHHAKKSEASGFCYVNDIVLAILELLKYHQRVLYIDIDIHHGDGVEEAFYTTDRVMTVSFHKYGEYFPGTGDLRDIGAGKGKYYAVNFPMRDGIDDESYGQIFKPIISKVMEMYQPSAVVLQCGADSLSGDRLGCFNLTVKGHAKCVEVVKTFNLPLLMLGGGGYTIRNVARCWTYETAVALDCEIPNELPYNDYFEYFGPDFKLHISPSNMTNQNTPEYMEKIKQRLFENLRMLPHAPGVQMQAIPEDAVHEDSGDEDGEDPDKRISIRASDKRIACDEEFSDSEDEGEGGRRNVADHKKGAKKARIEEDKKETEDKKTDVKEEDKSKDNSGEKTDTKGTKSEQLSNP

DU-145 [2] = assay: Fold increase in DU145 over HLF selectivity (GI50 ratio) relative to FK228 after 72 hrs by CCK8 assay
DU-145 [3] = assay: Fold increase in DU145 over HLF selectivity (GI50 ratio) relative to largazole after 72 hrs by CCK8 assay
Mus musculus [4] = assay: Toxicity in human DU145 cells xenografted BALB/c mouse assessed as mortality at 20 to 80 mg/kg, iv administered for 5 times a week for after 4 weeks; format: organism-based, DU-145; settings: in vivo, 672 h
Mus musculus [5] = assay: Toxicity in human DU145 cells xenografted BALB/c mouse assessed as change in body weight at 20 to 80 mg/kg, iv administered for 5 times a week for after 4 weeks; format: organism-based, DU-145; settings: in vivo, 672 h
DU-145 [6] = assay: Antitumor activity against human DU145 cells xenografted in BALB/c mouse assessed as tumor growth inhibition at 20 mg/kg, iv administered for 5 times a week for after 4 weeks; format: functional; settings: DU-145, iv, 672 h, read-out: GI
DU-145 [7] = assay: Antitumor activity against human DU145 cells xenografted in iv dosed BALB/c mouse assessed as delay in tumor growth after 4 weeks; format: functional, organism-based
DU-145 [8] = assay: Antitumor activity against human DU145 cells xenografted in BALB/c mouse assessed as delay in tumor growth at 20 mg/kg, iv administered for 5 times a week for after 4 weeks; format: functional
DU-145 [9] = assay: Antitumor activity against human DU145 cells xenografted in BALB/c mouse assessed as delay in tumor growth at 40 mg/kg, iv administered for 5 times a week for after 4 weeks; format: functional
[10] = Aqueous solubility of the compound; format: physicochemical; settings: buffer
DU-145 [11] = assay: Antitumor activity against human DU145 cells xenografted in BALB/c mouse assessed as delay in tumor growth at 80 mg/kg, iv administered for 5 times a week for after 4 weeks; format: functional

Compound | IC50 [1] [nM] | IC50 (Histone deacetylase 2) [nM] | Ratio (DU-145 [2]) | Ratio (DU-145 [3]) | Activity (Mus musculus [4]) | Activity (Mus musculus [5]) | inhibition in vivo at 20 mg/kg (DU-145 [6]) [%] | Activity (DU-145 [7]) | Activity (DU-145 [8]) [%] | Activity (DU-145 [9]) [%] | solubility [10] | Activity (DU-145 [11]) [%]
C/C=C1\NC(=O)c2csc(n2)[C@@H](C(C)C)NC(=O)C[C@@H](/C=C/CCS)OC(=O)[C@H](C(C)C)NC1=O | 459 | 36.6 |  |  |  |  |  |  |  |  |  | 
C/C=C1\NC(=O)c2csc(n2)CNC(=O)C[C@@H](/C=C/CCS)OC(=O)[C@H](C(C)C)NC1=O | 331 | 45 |  |  |  |  |  |  |  |  |  | 
C/C=C1\NC(=O)c2csc(n2)CNC(=O)C[C@@H](/C=C/CCSC(=O)CCCCCCC)OC(=O)[C@H](C(C)C)NC1=O | 6950 | 2710 | 22 | 20 |  |  |  |  |  |  |  | 
C/C=C1\NC(=O)c2csc(n2)CNC(=O)C[C@@H](/C=C/CCSC(C)=O)OC(=O)[C@H](C(C)C)NC1=O | 4630 | 328 |  |  | Non-toxic | Non-toxic | 51.7 | Dose-dependent effect | 51.7 | 75.2 | soluble | 81.2
C/C=C1\NC(=O)c2csc(n2)[C@@H](C(C)C)NC(=O)C[C@@H](/C=C/CCSC(=O)CCCCCCC)OC(=O)[C@H](C(C)C)NC1=O | > 10000 | 2740 | 8 |  |  |  |  |  |  |  |  | 
